The results in this text go back to PubChem BioAssay AID1259408 (Genetic Toxicology Data Bank (GENE-TOX), 2018).

This data set relates to GENE-TOX genotoxicity assays, various organisms and cells. Put plainly: GENE-TOX mutagenicity studies. The settings on record: for call: Assay Type: In vivo carcinogenicity studies.
Where [1] appears, read: Species/Cell Type: Drosophila melanogaster, Assay Type: Sex-linked recessive lethal gene mutation, Assay Code: SRLT, Evaluation Type: Evaluation A (Pre-1980).
Setting [2] is: Species/Cell Type: Human lymphocytes, Assay Type: Sister-chromatid exchange (SCE) in vitro, Assay Code: SCL+, Evaluation Type: Evaluation B (Post-1980).
The mark [3] stands for this setting: Species/Cell Type: Chinese hamster ovary (CHO) cells, Assay Type: Forward gene mutation at the HPRT locus, Assay Code: CHOT, Evaluation Type: Evaluation B (Post-1980).
The mark [4] stands for this setting: Species/Cell Type: Saccharomyces cerevisiae, Assay Type: Mitotic recombination or gene conversion, Assay Code: YEH+, Evaluation Type: Evaluation A (Pre-1980).
The mark [5] stands for this setting: Species/Cell Type: Rodents, Sex: Male, Assay Type: Dominant lethal test, Assay Code: DLT-, Evaluation Type: Evaluation A (Pre-1980).
The mark [6] stands for this setting: Species/Cell Type: Mammalian polychromatic erythrocytes, Assay Type: Micronucleus test, chromosome aberrations, Assay Code: MNTT, Evaluation Type: Evaluation B (Post-1980).
The mark [7] stands for this setting: Species/Cell Type: Saccharomyces cerevisiae, Assay Type: Mitotic recombination or gene conversion, Assay Code: YEC-, Evaluation Type: Evaluation A (Pre-1980).

Active and inactive are the calls of the source. No rule for the calls is given here.

Consider `CN[C@@H]1[C@H](O[C@H]2[C@H](O[C@H]3[C@H](O)[C@@H](O)[C@H](N=C(N)N)[C@@H](O)[C@@H]3N=C(N)N)O[C@@H](C)[C@]2(O)C=O)O[C@@H](CO)[C@H](O)[C@H]1O`, for which the mutagenic call by setting is: (Species/Cell Type: Bacillus subtilis (H17 vs M45T), Assay Type: Rec-assay, spot test, DNA effects (bacterial DNA repair), Assay Code: REXT, Evaluation Type: Evaluation A (Pre-1980)) “no conclusion”; under setting [1], “no conclusion”; (Species/Cell Type: Escherichia coli polA (W3119 vs P3478), Assay Type: Rec-assay, DNA effects (bacterial DNA repair), Assay Code: RE1-, Evaluation Type: Evaluation A (Pre-1980)) “inactive; negative”; (Species/Cell Type: Vicia faba, Assay Type: Chromosome aberrations, Assay Code: VIC+, Evaluation Type: Evaluation A (Pre-1980)) “active; positive”.
For `C=Cc1cn([C@H]2C[C@H](O)[C@@H](CO)O2)c(=O)[nH]c1=O`, the mutagenic call is, setting by setting: under setting [2], “active; positive”; (Species/Cell Type: Human, Assay Type: Sister-chromatid exchange (SCE) in vitro, Assay Code: SC1+D, Dose Response: With dose response, Evaluation Type: Evaluation B (Post-1980)) “active; positive”.
For `ClCc1ccccc1`, the mutagenic call (Species/Cell Type: Bacillus subtilis (H17 vs M45), Assay Type: Rec-assay, spot test, DNA effects (bacterial DNA repair), Assay Code: REW+, Evaluation Type: Evaluation A (Pre-1980)) is “active; positive”; the mutagenic call under setting [3] is reported as “no conclusion”; the mutagenic call (Species/Cell Type: Escherichia coli polA (W3110 vs P3478), Assay Type: Rec-assay, DNA effects (bacterial DNA repair), Assay Code: RE2+, Evaluation Type: Evaluation A (Pre-1980)) was “active; positive”; the mutagenic call (Species/Cell Type: Escherichia coli polA (W3119 vs P3478), Assay Type: Rec-assay, DNA effects (bacterial DNA repair), Assay Code: RE1+, Evaluation Type: Evaluation A (Pre-1980)) is “active; positive”; the mutagenic call (Species/Cell Type: Human diploid fibroblasts, Assay Type: Unscheduled DNA synthesis (UDS) in vitro, DNA effects, Assay Code: UDH+, Evaluation Type: Evaluation A (Pre-1980)) is “active; positive”; the mutagenic call under setting [2] is “active; positive”. The mutagenic call is “active; positive” (Species/Cell Type: Human, Assay Type: Sister-chromatid exchange (SCE) in vitro, Assay Code: SC1+, Evaluation Type: Evaluation B (Post-1980)); “inactive; negative” (Species/Cell Type: Mammalian polychromatic erythrocytes, Assay Type: Micronucleus test, chromosome aberrations, Assay Code: MNT-, Evaluation Type: Evaluation B (Post-1980)); “active; positive” under setting [4]; “active; positive” (Species/Cell Type: Salmonella typhimurium (one or more of the five standard strains: TA98, TA100, TA1535, TA1537, and TA1538), Assay Type: Histidine reverse gene mutation, Ames assay, Assay Code: SAL+, Evaluation Type: Evaluation A (Pre-1980)); “inactive; negative” (Species/Cell Type: Salmonella typhimurium, Assay Type: Forward and reverse gene mutation, host-mediated assay, Assay Code: HMA-, Evaluation Type: Evaluation A (Pre-1980)); “active; positive” (Species/Cell Type: Syrian hamster embryo (SHE) cells, Assay Type: Cell transformation, clonal assay, Assay Code: CTC+, Evaluation Type: Evaluation A (Pre-1980)). Under “Species/Cell Type: Nonhuman, Assay Code: CCG+L, Evaluation Type: Evaluation A (Pre-1980)”, the call is “active; positive”.
As to `CCOC(=O)CC(SP(=O)(OC)OC)C(=O)OCC` (stereo not given), the call (Species/Cell Type: Nonhuman, Assay Code: CCG-, Evaluation Type: Evaluation A (Pre-1980)) was “inactive; negative”. Besides, the mutagenic call (Species/Cell Type: Nonhuman, Assay Type: Sister-chromatid exchange (SCE) in vitro, Assay Code: SC2+D, Dose Response: With dose response, Evaluation Type: Evaluation B (Post-1980)) is “active; positive”.
Turning to `CCCCC1C(=O)N(c2ccccc2)N(c2ccccc2)C1=O`, the mutagenic call is, setting by setting: (Species/Cell Type: Mammalian germ cells, Sex: Male, Assay Type: Chromosome aberrations in vivo, Assay Code: CY9-, Evaluation Type: Evaluation A (Pre-1980)) “inactive; negative”; (Species/Cell Type: Mammalian polychromatic erythrocytes, Assay Type: Micronucleus test, chromosome aberrations, Assay Code: MNT+, Evaluation Type: Evaluation B (Post-1980)) “active; positive”; (Species/Cell Type: Mammalian polychromatic erythrocytes, Assay Type: Micronucleus test, chromosome aberrations, Assay Code: MNTT, Evaluation Type: Evaluation A (Pre-1980)) “no conclusion”; under setting [5], “inactive; negative”; (Species/Cell Type: Salmonella typhimurium (one or more of the five standard strains: TA98, TA100, TA1535, TA1537, and TA1538), Assay Type: Histidine reverse gene mutation, Ames assay, Assay Code: SALT, Evaluation Type: Evaluation A (Pre-1980)) “no conclusion”.
As for `C[n+]1c2cc(N)ccc2cc2ccc(N)cc21` (tested in a mixture with another compound), the mutagenic call by setting is: (Species/Cell Type: Aspergillus nidulans, Assay Type: Forward gene mutation, Assay Code: ASF+, Evaluation Type: Evaluation A (Pre-1980)) “active; positive”; (Species/Cell Type: Mammalian cell culture, nonhuman, Assay Type: Micronucleus test in vitro, chromosome aberrations, Assay Code: MN&+U, Dose Response: Unconfirmed positive response, Evaluation Type: Evaluation A (Pre-1980)) “active; positive”; (Species/Cell Type: Mammalian oocytes or early embryo, Assay Type: Chromosome aberrations in vivo, Assay Code: CYO-, Evaluation Type: Evaluation A (Pre-1980)) “inactive; negative”; (Species/Cell Type: Mammalian polychromatic erythrocytes, Assay Type: Micronucleus test, chromosome aberrations, Assay Code: MNT+U, Dose Response: Unconfirmed positive response, Evaluation Type: Evaluation A (Pre-1980)) “active; positive”; (Species/Cell Type: Mouse, Sex: Male, Assay Type: Sperm morphology, Assay Code: SPI+, Evaluation Type: Evaluation A (Pre-1980)) “active; positive”; (Species/Cell Type: Saccharomyces cerevisiae, Assay Type: Mitotic recombination or gene conversion, Assay Code: YECT, Evaluation Type: Evaluation A (Pre-1980)) “no conclusion”. Besides, the mutagenic call reads like this: under setting [4], “active; positive”; (Species/Cell Type: Salmonella typhimurium, Escherichia coli, Serratia marcesens, Assay Type: Forward and reverse gene mutation, host-mediated assay, Assay Code: HMN-, Evaluation Type: Evaluation A (Pre-1980)) “inactive; negative”.
Turning to `CCN(CC)c1ccc2cc3ccc(=[N+](CC)CC)cc-3oc2c1`, the mutagenic call (Species/Cell Type: Drosophila melanogaster, Assay Type: Sex-linked recessive lethal gene mutation, Assay Code: SRL+, Evaluation Type: Evaluation A (Pre-1980)) was “active; positive”.
Regarding `CCSCCC(N)C(=O)O` (stereo not given), the mutagenic call (Species/Cell Type: Neurospora crassa, Assay Type: Aneuploidy, chromosome aberrations, Assay Code: NEN-, Evaluation Type: Evaluation A (Pre-1980)) was “inactive; negative” and the mutagenic call (Species/Cell Type: Nonhuman, Assay Type: Sister-chromatid exchange (SCE) in vitro, Assay Code: SC2+, Evaluation Type: Evaluation B (Post-1980)) was “active; positive”. Moreover, the call (Species/Cell Type: Nonhuman, Assay Code: CCG+, Evaluation Type: Evaluation A (Pre-1980)) is “active; positive”.
Turning to `CNC(=O)C[C@@H](N)C(=O)N[C@@H](C(=O)N[C@@H]1C(=O)N2[C@@H]1SC(C)(C)[C@@H]2C(=O)O)c1ccc(O)cc1`, the mutagenic call under setting [6] is recorded as “no conclusion”.
For the molecule `CCOP(=S)(OCC)SCSC(C)(C)C`, the mutagenic call (Species/Cell Type: Hordeum vulgare (barley), Assay Type: Chromosome aberrations, Assay Code: HOC+D, Dose Response: With dose response, Evaluation Type: Evaluation A (Pre-1980)) was “active; positive”.
Consider `O=[N+]([O-])c1ccc(-c2csc(Nc3ccccc3)n2)o1`, for which the mutagenic call reads like this: (Species/Cell Type: Escherichia coli WP2, Assay Type: Tryptophan reverse gene mutation, Assay Code: WP2+, Evaluation Type: Evaluation A (Pre-1980)) “active; positive”; (Species/Cell Type: Escherichia coli WP2 UVRA, Assay Type: Tryptophan reverse gene mutation, Assay Code: WPU-, Evaluation Type: Evaluation A (Pre-1980)) “inactive; negative”.
Turning to `O=C(O)CS`, the mutagenic call under setting [6] is “no conclusion”.
For the molecule `COC(=O)COc1ccc(Br)cc1CSC(=N)N`, the mutagenic call (Species/Cell Type: Saccharomyces cerevisiae, Assay Type: Reverse gene mutation, Assay Code: YERT, Evaluation Type: Evaluation A (Pre-1980)) is reported as “no conclusion”.
`c1cc[n+]2c(c1)-c1cccc[n+]1CC2`: the mutagenic call is “no conclusion” under setting [1]; “inactive; negative” under setting [5]; “active; positive” (Species/Cell Type: Saccharomyces cerevisiae, Assay Type: Mitotic recombination or gene conversion, Assay Code: YEC+, Evaluation Type: Evaluation A (Pre-1980)).
In the case of `O=C1c2ccccc2C(=O)c2c1ccc(OCCCS(=O)(=O)O)c2O`, the mutagenic call (Species/Cell Type: Salmonella typhimurium (one or more of the five standard strains: TA98, TA100, TA1535, TA1537, and TA1538), Assay Type: Histidine reverse gene mutation, Ames assay, Assay Code: SAL+*, Activation: With metabolic activation, Evaluation Type: Evaluation A (Pre-1980)) was “active; positive”.
For the molecule `COc1cc([C@@H]2c3cc4c(cc3[C@@H](O)[C@H]3COC(=O)[C@H]23)OCO4)cc(OC)c1O`, under setting [3], the mutagenic call is listed as “no conclusion”.
Regarding `CC(=O)OC1C2OC2C2=CC(O)C3(CC2(C)C1C)OC3(C)CO` (stereo not given), under setting [7], the mutagenic call is “inactive; negative”.
The same measure, in the same setting: for `O=[N+]([O-])c1ccc(Oc2ccc(C(F)(F)F)cc2[N+](=O)[O-])cc1` the value was “inactive; negative”.
`CCc1cn([C@H]2C[C@H](O)[C@@H](CO)O2)c(=O)[nH]c1=O`: the mutagenic call reads like this: under setting [1], “no conclusion”; (Species/Cell Type: Drosophila melanogaster, Sex: Male, Assay Type: Heritable translocation test, chromosome aberrations, Assay Code: DHTT, Evaluation Type: Evaluation A (Pre-1980)) “no conclusion”; (Species/Cell Type: Human lymphocytes, Assay Type: Sister-chromatid exchange (SCE) in vitro, Assay Code: SCLT, Evaluation Type: Evaluation B (Post-1980)) “no conclusion”; (Species/Cell Type: Human, Assay Type: Sister-chromatid exchange (SCE) in vitro, Assay Code: SC1T, Evaluation Type: Evaluation B (Post-1980)) “no conclusion”.
